Measurements: paper PMC10648349, “Aromatic Diboronic Acids as Effective KPC/AmpC Inhibitors” (Molecules, 2023)
Values after ≈ are worked out from the molar mass of the structure shown. Where two headings read alike, the source gives them in different places.

What was measured:
[1] = tested on: P. aeruginosa MUW 700 cAmpC-positive; assay: combination disc test CDT-AmpC; type: cell-based; conditions: Pseudomonas aeruginosa, read-out: Diameter of inhibition zone, CAZ-30 disc with agent
C. tropicalis IBA 171 = assay: antifungal activity (disc-diffusion, MIC, MFC); type: cell-based; conditions: Candida tropicalis, IBA171; for MIC: fluconazole by Etest
Summary of the method: (§1)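 Disc-diffusion, MIC, MBC (bacteria) and MFC (yeasts) were determined per EUCAST and CLSI recommendations. Diboronic acids were dissolved in DMSO and applied at 0.4 mg per disc for diffusion. References: nitrofurantoin (Gram-negative rods), linezolid (Gram-positive), fluconazole (fungi).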

C. tropicalis ATCC 750 = assay: antifungal activity (disc-diffusion, MIC, MFC); type: cell-based; conditions: Candida tropicalis, ATCC750; for MIC: fluconazole by Etest
Summary of the method: as §1

C. albicans ATCC 90028 = assay: antifungal activity (disc-diffusion, MIC, MFC); type: cell-based; conditions: Candida albicans, ATCC90028; for MIC: fluconazole by Etest
Summary of the method: as §1

S. cerevisiae ATCC 9763 = assay: antifungal activity (disc-diffusion, MIC, MFC); type: cell-based; conditions: Saccharomyces cerevisiae, ATCC9763; for MIC: fluconazole by Etest
Summary of the method: as §1

[2] = tested on: K. pneumoniae ATCC BAA 1705 KPC-2-positive; assay: combination disc test CDT-KPC; type: cell-based; conditions: Klebsiella pneumoniae
[3] = tested on: E. coli 77 CMY-2-positive; assay: combination disc test CDT-AmpC; type: cell-based; conditions: Escherichia coli, read-out: Diameter of inhibition zone, CAZ-30 disc with agent
[4] = tested on: E. coli 77 CMY-2-positive; assay: checkerboard microdilution, antibiotic plus tested agent; type: cell-based, Escherichia coli
Summary of the method: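 Read-out is the antibiotic MIC with agent present, plus FICI = combined/alone MIC ratios summed for both partners. Meropenem pairs served for carbapenemase strains and ceftazidime pairs for the AmpC strain. Agent or PBA was tested at 4–16 mg/L.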

[5] = tested on: C. guilliermondii IBA 155; assay: antifungal activity (disc-diffusion, MIC, MFC); type: cell-based, Candida guilliermondii; conditions: Meyerozyma guilliermondii, IBA155; for MIC: fluconazole by Etest
Summary of the method: as §1

[6] = tested on: K. pneumoniae ATCC 700603 ESBL-positive; assay: combination disc test CDT-ESBL; type: cell-based; conditions: Klebsiella pneumoniae
[7] = tested on: S. epidermidis ATCC 12228; assay: direct antimicrobial activity (disc-diffusion, MIC, MBC); type: cell-based; conditions: Staphylococcus epidermidis, ATCC12228
Summary of the method: as §1

E. faecalis ATCC 29212 = assay: as above; type: cell-based; conditions: Enterococcus faecalis, ATCC29212
Summary of the method: as §1

S. aureus ATCC 6538P = assay: as above; type: cell-based; conditions: Staphylococcus aureus, ATCC6538P; for zone of inhibition at 0.4 mg/disc: 0.4 mg per disc, 9 mm disc (linezolid 0.03 mg, 6 mm disc), - no zone, read-out: Diameter of inhibition zone
Summary of the method: as §1

E. faecium ATCC 6057 = assay: as above; type: cell-based; conditions: Enterococcus faecium, ATCC6057
Summary of the method: as §1

[8] = tested on: S. aureus ATCC 43300 MRSA; assay: as above; type: cell-based; conditions: Staphylococcus aureus; for zone of inhibition at 0.4 mg/disc: 0.4 mg per disc, 9 mm disc (linezolid 0.03 mg, 6 mm disc), - no zone, read-out: Diameter of inhibition zone
Summary of the method: as §1

[9] = MTT-based viability assay; type: cell-based; conditions: human, 72 h; for viability at 72 h, 12.5 mg/L / viability at 72 h, 25 mg/L / viability at 72 h, 50 mg/L: read-out: Viability of MRC-5 cells (% of viable cells ± SD)
Summary of the method: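 Percent viable cells relative to control, measured in triplicate by MTT read-out at 570 nm. Cells: MRC-5 human fibroblasts cultured at 37 °C, 5% CO2 in MEME plus 10% FBS.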

[10] = tested on: C. parapsilosis ATCC 22019; assay: antifungal activity (disc-diffusion, MIC, MFC); type: cell-based, Candida parapsilosis; conditions: Lodderomyces parapsilosis, ATCC22019; for MIC: fluconazole by Etest
Summary of the method: as §1

B. subtilis ATCC 6633 = assay: direct antimicrobial activity (disc-diffusion); type: cell-based; conditions: Bacillus subtilis, ATCC6633; 0.4 mg per disc, 9 mm disc (linezolid 0.03 mg, 6 mm disc); - no zone; read-out: Diameter of inhibition zone
Summary of the method: as §1

[11] = 0.4 mg per disc, 9 mm disc (fluconazole 0.025 mg, 6 mm disc), - no zone, read-out: Diameter of inhibition zone
[12] = 0.4 mg per disc, 9 mm disc (linezolid 0.03 mg, 6 mm disc), - no zone, read-out: Diameter of inhibition zone

## OB(O)c1cc(B(O)O)c(F)cc1F [2c]
[1]; agent 0.1 mg per disc
  zone of inhibition at 100 µg/disc: 20 mm
C. tropicalis IBA 171
  MIC: > 400 µg/mL
C. tropicalis ATCC 750
  MIC: > 400 µg/mL
C. albicans ATCC 90028
  MIC: > 400 µg/mL
S. cerevisiae ATCC 9763
  MIC: > 400 µg/mL
[2]; BAA1705, agent 0.1 mg per disc, read-out: Diameter of inhibition zone, MEM-10 disc with agent
  zone of inhibition at 100 µg/disc: 6 mm
[3]; agent 0.1 mg per disc
  zone of inhibition at 100 µg/disc: 19 mm
[4]
  Average FICI with ceftazidime: 0.21
  The lowest FICI with ceftazidime: 0.17
[5]
  MIC: > 400 µg/mL
[6]; ATCC700603, agent 0.1 mg per disc, read-out: Diameter of inhibition zone, CAZ-30 disc with agent
  zone of inhibition at 100 µg/disc: 13 mm
[7]
  MIC: 50 µg/mL (≈ 248 µM)
E. faecalis ATCC 29212
  MIC: 400 µg/mL (≈ 1980 µM)
S. aureus ATCC 6538P
  MIC: 50 µg/mL (≈ 248 µM)
  zone of inhibition at 0.4 mg/disc: 20 mm
E. faecium ATCC 6057
  MIC: 400 µg/mL (≈ 1980 µM)
[8]
  MIC: 100 µg/mL (≈ 496 µM)
  zone of inhibition at 0.4 mg/disc: 19 mm
[9]; MRC-5 human fibroblasts
  viability at 72 h, 12.5 mg/L: 89.1 ± 0.5%
  viability at 72 h, 25 mg/L: 83.6 ± 2.7%
  viability at 72 h, 50 mg/L: 63.8 ± 2.5%
[10]
  MIC: > 400 µg/mL

## O=Cc1cc(F)ccc1B(O)O [7b]
C. tropicalis IBA 171; [11]
  zone of inhibition at 0.4 mg/disc: 22 mm
C. tropicalis IBA 171
  MIC: 50 µg/mL (≈ 298 µM)
C. tropicalis ATCC 750; [11]
  zone of inhibition at 0.4 mg/disc: 21 mm
C. tropicalis ATCC 750
  MIC: 50 µg/mL (≈ 298 µM)
C. albicans ATCC 90028; [11]
  zone of inhibition at 0.4 mg/disc: 31 mm
C. albicans ATCC 90028
  MIC: 6.25 µg/mL (≈ 37.2 µM)
S. cerevisiae ATCC 9763; [11]
  zone of inhibition at 0.4 mg/disc: 35 mm
S. cerevisiae ATCC 9763
  MIC: 6.25 µg/mL (≈ 37.2 µM)
[5]; [11]
  zone of inhibition at 0.4 mg/disc: 27 mm
[5]
  MIC: 25 µg/mL (≈ 149 µM)
[7]
  MBC: 100 µg/mL (≈ 595 µM)
  MIC: 50 µg/mL (≈ 298 µM)
[7]; [12]
  zone of inhibition at 0.4 mg/disc: 30 mm
E. faecalis ATCC 29212
  MIC: 200 µg/mL (≈ 1190 µM)
E. faecalis ATCC 29212; [12]
  zone of inhibition at 0.4 mg/disc: 14 mm
S. aureus ATCC 6538P
  MBC: 100 µg/mL (≈ 595 µM)
  MIC: 50 µg/mL (≈ 298 µM)
  zone of inhibition at 0.4 mg/disc: 19 mm
E. faecium ATCC 6057
  MIC: 200 µg/mL (≈ 1190 µM)
E. faecium ATCC 6057; [12]
  zone of inhibition at 0.4 mg/disc: 14 mm
[8]
  MIC: 50 µg/mL (≈ 298 µM)
  zone of inhibition at 0.4 mg/disc: 20 mm
[9]; MRC-5 human fibroblasts
  viability at 72 h, 12.5 mg/L: 48.9 ± 3.8%
  viability at 72 h, 25 mg/L: 6.4 ± 1.4%
  viability at 72 h, 50 mg/L: 0.9 ± 0.7%
[9]; MRC-5 human fibroblasts, 12.5, 25 and 50 mg/L
  viability at 72 h: 0 to 56.4%
B. subtilis ATCC 6633
  zone of inhibition at 0.4 mg/disc: 22 mm
[10]; [11]
  zone of inhibition at 0.4 mg/disc: 17 mm
[10]
  MIC: 12.5 µg/mL (≈ 74.4 µM)

## OB(O)c1ccccc1 [PBA, phenylboronic acid, reference compound]
[1]
  zone of inhibition at 300 µg/disc: 24 mm
[2]; BAA1705, read-out: Diameter of inhibition zone, MEM-10 disc with agent
  zone of inhibition at 300 µg/disc: 21 mm
[3]
  zone of inhibition at 300 µg/disc: 24 mm
[4]
  Average FICI with ceftazidime: 0.30
  The lowest FICI with ceftazidime: 0.15
[6]; ATCC700603, read-out: Diameter of inhibition zone, CAZ-30 disc with agent
  zone of inhibition at 300 µg/disc: 14 mm
[9]
  viability at 72 h, 12.5 mg/L: 81.5 ± 3.7%
  viability at 72 h, 25 mg/L: 79.1 ± 4.4%
  viability at 72 h, 50 mg/L: 58.7 ± 4.3%
